Laboratory results: patent US20020032183A1, “Use of (di-substituted-phenyl)-pyrimidinyl-imidazole derivatives as JNK-inhibitors” (priority 2000, published 2002)
Where “and” joins values, the source holds several entries; their conditions need not be identical. Equal entries are not always repeated. Where two headings read alike, the source gives them in different places. Marks after values point to notes of the source that are not given here.

Assays:
[1] = system: mouse cerebellar granule neurons; assay: Detection of neuronal apoptosis in mouse cerebellar granule neurons (low K+); assay type: cell-based; conditions: Neuron, low (5 mM) K+, serum-free, 8 h, FIG. 1, read-out: IC50 for inhibition of neuronal apoptosis
Description: 1. Dissect out cerebella from 7-9 day old CD-I mouse pups; remove meninges.
2. Mince and dissociate with trypsin. Halt trypsinization with Dnase I and egg white trypsin inhibitor.
3. Individual cells are obtained by trituration with a pasteur pipet.
4. Cells were resuspended in cell culture media [(cMEM) E-MEM), 25 mM glucose, 10% fetal bovine serum, 2 mM glutamine, 100 μg/mL gentamycin, 25 mM KCl] and seeded at 1.2×10^5 cells per well onto 96-well microplates pre-coated with poly-D-lysine.
5. Cultures were incubated at 37° C. in 6% CO2, and were used for experiments on day 5-7 in vitro.
1. Replace media in column 1 with serum-free cMEM. Replace medium in columns 2-12 with serum-free cMEM with low (5 mM) K+.
2. Add drug titrations (serial diluted in DMSO; final 1% DMSO). Incubate 8 h @ 37° C.
3. Spin plate @ 1500 rpm 10 min., remove media and add lysis buffer.
4. Incubate 30 min. room temp. shaking.
5. Spin plate @ 1500 rpm 10 min., transfer supernatant to fresh plate. Store @ 4° C.
6. Transfer 5 μL supernatant and 45 μL EIA reagent to EIA strip plate (positive control standards in column 12); incubate @ room temp 2 h.
7. Wash strip plate with PBS using the plate washer.
8. Add 150 μL K-blue substrate (ELISA Technologies, Inc., Gainsville, Fla.); stop using 50 μL Red Stop. Read plate @ 650 nm.

[2] = system: mesencephalic dopaminergic neurons; assay type: cell-based, rat; conditions: for TH-immunoreactive cell survival, Mean: 48 hours
From the text: Effects of Jnk Inhibition on Dopaminergic Neuronal Survival, In Vitro Following Treatment with the Neurotoxin MPP^+.
This protocol produces a yield of dopaminergic neurons of around 0.5-1%; this is equivalent to roughly 1000-1500 dopaminergic cells in the well. 14 day gestation Sprague-Dawley rats were killed by stunning and exsanguination. Embryos were removed and decapitated, and the ventral mesencephalon dissected from the brain. The tissue was dissociated by trypsin (0.25% in Hank's BSS) digestion for 20 minutes. The trypsin was neutralized by addition of an excess of serum containing medium and the cells centrifuged at 1000 rpm for 10 minutes. The cell pellet was resuspended in DMEM/10% FCS, and a single cell suspension prepared by mechanical dissociation and passage through a 70 μm cell strainer. Trypan blue excluding cells were counted in a haemocytometer, and cells were plated into poly-D-lysine treated 8-well chamber slides at a density of 2×10^5 cells/well in Dulbecco's MEM supplemented with 10% FCS. Cultures were incubated for 24 hours at 37° C./5% CO2, then the medium was replaced with DMEM supplemented with SATO (final concentration; 4.3 mg/ml BSA, 0.77 μg/ml progesterone, 20 μg/ml putrescine, 0.49 μg/ml L-thyroxine, 0.048 μg/ml selenium and 0.42 μg/ml tri-iodo-thyronine).
Cultures were incubated for 5 days, then removed from the incubator and treated with compounds. Jnk inhibitors were added at concentrations ranging from 1 nM to 1 μM to 4 independent wells per concentration. 15 minutes following addition of Jnk inhibitors, MPP^+ was added directly to the wells to give a final concentration in the well of 10 μM. 4 wells were treated with MPP^+ 10 μM alone, and 4 left as untreated controls. zVAD-fmk 300 μM and Example 2 500 nM were used as positive controls. Once compounds and MPP^+ had been added, cultures were returned to the incubator at 37° C./5% CO2 for a further 48 hours prior to fixation and immunostaining.
To determine the numbers of surviving dopaminergic neurons, immunocytochemistry was carried out using a rabbit polyclonal antibody raised against TH. Non-specific binding sites were blocked using 10% normal goat serum in PBS, then primary antibody was added at 4° C. overnight. The next day, the cells were washed and treated with biotin conjugated goat anti-rabbit IgG for one hour, followed by peroxidase conjugated avidin biotin complex, both made up from the Vectastain® Elite ABC kit (Vector Laboratories, Burlingame, Calif.) according to the manufacturer's instructions. Staining was visualized using Vector™ SG (Vector Laboratories) insoluble peroxidase substrate according to the manufacturer's instructions. Following staining, the gaskets were removed from the chamber slides, and the slides mounted using aqueous mountant. Slides were blinded by another investigator before quantification of TH-immunoreactive cell survival. To determine TH-immunoreactive cell survival, cells were visualized using transmitted light on a Zeiss Axiovert inverted microscope using a 10X objective. Counts were made of all the TH-immunoreactive cells present in each well.
Data analysis was performed using a one way analysis of variance, followed by Dunnett's t-test. In each case the data refer to one representative experiment, with four independent replicates for each data point. […] Data shown are normalized to percentage of control response; all statistical analyses, however, were carried out on the cell counts.

Structure (SMILES): CCCn1c(C2CCN(C)CC2)nc(-c2ccc(Cl)c(Cl)c2)c1-c1ccnc(NC2CC2)n1 [Example 2, Cyclopropyl-{4-[5-(3,4-dichlorophenyl)-2-[(1-methyl)-piperidin]-4-yl-3-propyl-3H-imidazol-4-yl]-pyrimidin-2-yl}amine]
- IC50 [1]: 100 nM
- TH-immunoreactive cell survival, Mean ([2]; 1 nM + MPP+ 10 μM): 54.72 % of untreated control
- TH-immunoreactive cell survival, Mean ([2]; 10 nM + MPP+ 10 μM): 60.77* % of untreated control
- TH-immunoreactive cell survival, Mean ([2]; 100 nM + MPP+ 10 μM): 59.95* % of untreated control
- TH-immunoreactive cell survival, Mean ([2]; 500 nM + MPP+ 10 μM): 72 % of untreated control and 72.41** % of untreated control
- TH-immunoreactive cell survival, Mean ([2]; 1 μM + MPP+ 10 μM): 71.14** % of untreated control
- TH-immunoreactive cell survival, Mean ([2]; 10 μM + MPP+ 10 μM): 32.08 % of untreated control
- Non-specific toxicity ([2]; 10 μM treatment): Non-specific toxicity is observed
- Concentrations giving significant increases in survival ([2]; MPP+ 10 μM, p<0.05): ≥ 10 nM
